What was measured:
[1] = biological target: T1, Glycogen phosphorylase, muscle form (Oryctolagus cuniculus) (UniProt P00489); assay: Inhibition of rabbit muscle glycogen phosphorylase […] assessed as release of phosphate from glucose-1- phosphate at 10 uM after 20 mins
T1 sequence (whole entry): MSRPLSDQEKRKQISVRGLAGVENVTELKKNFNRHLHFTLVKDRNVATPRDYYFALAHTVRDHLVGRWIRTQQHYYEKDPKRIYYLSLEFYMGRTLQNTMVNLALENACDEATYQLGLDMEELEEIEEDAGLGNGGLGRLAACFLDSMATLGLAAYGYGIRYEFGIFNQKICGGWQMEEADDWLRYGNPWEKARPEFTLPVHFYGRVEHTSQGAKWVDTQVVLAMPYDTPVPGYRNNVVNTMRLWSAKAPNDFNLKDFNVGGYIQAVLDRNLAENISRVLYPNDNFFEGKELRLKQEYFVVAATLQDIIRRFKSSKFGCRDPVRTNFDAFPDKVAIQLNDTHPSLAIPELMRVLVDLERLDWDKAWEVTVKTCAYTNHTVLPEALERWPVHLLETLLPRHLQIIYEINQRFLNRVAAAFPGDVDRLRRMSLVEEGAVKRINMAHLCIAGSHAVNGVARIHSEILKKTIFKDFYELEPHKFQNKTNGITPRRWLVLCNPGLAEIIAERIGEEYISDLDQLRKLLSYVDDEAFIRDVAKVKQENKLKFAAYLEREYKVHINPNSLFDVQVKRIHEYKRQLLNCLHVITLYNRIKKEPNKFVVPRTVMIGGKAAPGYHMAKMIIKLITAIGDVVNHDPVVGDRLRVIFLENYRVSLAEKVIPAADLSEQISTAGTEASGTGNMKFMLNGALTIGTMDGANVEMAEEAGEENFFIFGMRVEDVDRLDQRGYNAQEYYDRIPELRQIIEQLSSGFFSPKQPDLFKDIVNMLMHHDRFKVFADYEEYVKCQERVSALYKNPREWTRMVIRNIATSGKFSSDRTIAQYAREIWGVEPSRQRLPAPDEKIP

[2] = biological target: T2, Glycogen phosphorylase, muscle form (Oryctolagus cuniculus, UniProt P00489); assay: Inhibition of rabbit muscle glycogen phosphorylase […] assessed as release of phosphate from glucose-1- phosphate after 20 mins
T2 sequence (P00489 whole entry): T1 sequence (whole entry)

C/C=C/c1cc(OC)c2c(c1)[C@H](C)[C@@H](c1ccc(O)c(OC)c1)O2
inhibition [1]: 8%

O=C1Oc2ccccc2N/C1=C/C(=O)c1ccc(Cl)cc1
inhibition [1]: 26%

Cc1cc(S(=O)(=O)Nc2nc3ccccc3[nH]2)c(S)cc1Cl
IC50 [2]: 6.9 µM | inhibition [1]: 45%

CSc1ccc(NC(=O)Nc2ccccc2C(N)=O)cc1
inhibition [1]: 17%

Cc1cccc(NC(=O)CC(=O)Nc2cccc(C)c2)c1
inhibition [1]: 4%

Cc1ccccc1NC(=O)CC(=O)Nc1ccccc1C
inhibition [1]: 2%

Cc1cc(S(=O)(=O)Nc2nnc3c(C(F)(F)F)cc(Cl)cn23)c(S)cc1Cl
IC50 [2]: 5.9 µM | inhibition [1]: 53%

COC(=O)c1ccccc1NC(=O)Nc1ccc(SC)cc1
inhibition [1]: 7%

Cc1cc(S(=O)(=O)Nc2nnc3c4ccccc4ccn23)c(S)cc1Cl
IC50 [2]: 7.5 µM | inhibition [1]: 42%

CSc1ccc(NC(=O)C2CCCCC2C(=O)O)cc1 (stereo unspecified)
inhibition [1]: 17%

COc1ccccc1NC(=O)C(=O)Nc1ccccn1
inhibition [1]: 5%

CSc1cccc(NC(=O)Nc2ccccc2C(N)=O)c1
inhibition [1]: 36%

COc1ccc2cc(-c3ccc(OC)c(OC)c3)c(=O)oc2c1
inhibition [1]: 24%

CCOC(=O)C(=O)CC(=O)c1ccc(OC)cc1
inhibition [1]: 34%

O=C(CC(=O)NCc1ccccc1)NCc1ccccc1
inhibition [1]: 1%

COC(=O)c1ccccc1NC(=O)Nc1cccc(OC)c1
inhibition [1]: 12%

Cc1ccccc1NC(=O)C(=O)Nc1ccccc1C
IC50 [2]: 5.4 µM | inhibition [1]: 55%

CCOc1ccc(NC(=O)c2cc3ccccc3cc2O)cc1
inhibition [1]: 22%

Cc1ccc(S(=O)(=O)CC2CCc3ccccc3C2=O)cc1 (stereo unspecified)
IC50 [2]: 16.5 µM | inhibition [1]: 49%

NC(=O)c1ccccc1NC(=O)COc1ccc(Cl)cc1
inhibition [1]: 38%

CN(C)c1ccc(/C=C/C(=O)c2cc(Cl)ccc2O)cc1
inhibition [1]: 25%
